In patent US8772330B2, “Inhibitor(s) of transporters or uptake of monoaminergic neurotransmitters” (State of Oregon acting by and through the State Board of …, priority 2009, dated 2014):
Counter-ions that a name gives are not always drawn.

Legend:
[1] = target: T1, dopamine (DA) transporter (Homo sapiens, UniProt Q01959); details: for Slope, Dopamine (DA) transporter: Table 1, binding curve slope
[2] = target: T2, serotonin (5-HT) transporter (Homo sapiens, UniProt P31645); details: for Slope, Serotonin (5-HT) transporter: Table 1, binding curve slope
[3] = target: T3, norepinephrine (NE) transporter (Homo sapiens, UniProt P23975)
Target sequence in this assay (P23975 whole entry): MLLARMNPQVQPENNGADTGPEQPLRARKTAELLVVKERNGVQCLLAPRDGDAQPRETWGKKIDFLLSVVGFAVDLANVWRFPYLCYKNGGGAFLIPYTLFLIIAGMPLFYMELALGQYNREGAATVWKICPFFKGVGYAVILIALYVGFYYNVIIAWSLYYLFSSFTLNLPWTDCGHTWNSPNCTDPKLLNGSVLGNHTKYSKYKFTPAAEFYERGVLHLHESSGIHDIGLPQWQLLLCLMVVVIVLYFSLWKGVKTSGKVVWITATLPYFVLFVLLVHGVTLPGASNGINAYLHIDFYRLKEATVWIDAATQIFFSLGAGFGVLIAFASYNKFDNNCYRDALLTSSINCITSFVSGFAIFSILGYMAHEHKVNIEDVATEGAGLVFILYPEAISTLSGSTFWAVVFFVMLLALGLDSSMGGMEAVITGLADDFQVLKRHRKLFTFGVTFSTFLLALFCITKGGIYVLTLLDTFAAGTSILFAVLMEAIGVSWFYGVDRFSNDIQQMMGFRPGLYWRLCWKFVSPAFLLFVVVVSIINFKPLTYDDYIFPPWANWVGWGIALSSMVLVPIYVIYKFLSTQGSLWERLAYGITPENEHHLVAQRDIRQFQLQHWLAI

[4] = target: T1, dopamine (DA) transporter; details: Table 2; data derived from literature; read-out: Affinity (Ki), Dopamine (DA) transporter; cited from earlier work
[5] = target: T3, norepinephrine (NE) transporter; details: Table 2; data derived from literature; read-out: Affinity (Ki), Norepinephrine (NE) transporter; cited from earlier work
Target sequence in this assay (P23975 whole entry, species assumed): as the sequence (P23975 whole entry) above

[6] = target: T2, serotonin (5-HT) transporter; details: Table 2; data derived from literature; read-out: Affinity (Ki), 5-Hydroxy Tryptamine (5-HT) transporter; cited from earlier work

T2 sequence (P31645 whole entry): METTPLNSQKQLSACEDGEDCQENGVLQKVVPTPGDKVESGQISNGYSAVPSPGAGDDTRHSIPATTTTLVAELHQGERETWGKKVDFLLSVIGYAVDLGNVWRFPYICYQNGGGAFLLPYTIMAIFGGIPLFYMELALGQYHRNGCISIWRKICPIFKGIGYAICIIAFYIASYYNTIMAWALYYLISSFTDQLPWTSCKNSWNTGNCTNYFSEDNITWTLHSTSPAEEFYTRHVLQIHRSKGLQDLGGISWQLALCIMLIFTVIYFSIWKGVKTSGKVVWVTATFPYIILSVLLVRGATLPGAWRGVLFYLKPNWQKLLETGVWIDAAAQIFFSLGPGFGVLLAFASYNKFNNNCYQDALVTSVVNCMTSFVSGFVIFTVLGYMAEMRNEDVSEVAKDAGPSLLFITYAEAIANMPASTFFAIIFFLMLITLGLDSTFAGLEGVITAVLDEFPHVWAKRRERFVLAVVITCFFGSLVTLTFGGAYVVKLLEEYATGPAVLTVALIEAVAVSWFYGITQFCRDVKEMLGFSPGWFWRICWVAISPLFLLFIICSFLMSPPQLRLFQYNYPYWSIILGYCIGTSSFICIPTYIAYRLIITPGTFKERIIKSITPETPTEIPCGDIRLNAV
T1 sequence (Q01959 whole entry): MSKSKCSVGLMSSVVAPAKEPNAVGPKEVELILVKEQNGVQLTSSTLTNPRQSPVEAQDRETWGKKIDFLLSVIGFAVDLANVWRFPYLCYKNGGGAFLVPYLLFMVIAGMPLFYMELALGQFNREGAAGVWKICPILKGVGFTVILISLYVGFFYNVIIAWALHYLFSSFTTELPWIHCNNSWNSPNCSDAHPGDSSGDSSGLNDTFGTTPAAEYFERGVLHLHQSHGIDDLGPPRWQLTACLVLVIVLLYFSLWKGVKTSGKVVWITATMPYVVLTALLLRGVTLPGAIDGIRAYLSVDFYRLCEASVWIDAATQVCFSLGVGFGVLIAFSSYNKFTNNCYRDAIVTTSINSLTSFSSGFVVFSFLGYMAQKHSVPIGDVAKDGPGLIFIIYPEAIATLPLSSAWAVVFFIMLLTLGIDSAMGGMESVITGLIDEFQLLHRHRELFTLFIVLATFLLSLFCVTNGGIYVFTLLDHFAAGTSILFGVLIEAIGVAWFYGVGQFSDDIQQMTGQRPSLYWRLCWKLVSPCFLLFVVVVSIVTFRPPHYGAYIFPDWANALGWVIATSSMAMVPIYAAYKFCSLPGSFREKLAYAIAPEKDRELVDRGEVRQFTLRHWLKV

SMILES: CNC[C@@H]1C[C@]1(Oc1cccc2ccccc12)c1cccs1 (racemic) [DWJW0002, (E)-N-Methyl-[2-(naphthalen-1-yloxy)-2-(thiophen-2-yl)cyclopropyl)methanamine Hydrochloride]
- Slope, Dopamine (DA) transporter [1]: −1.11
- Slope, Serotonin (5-HT) transporter [2]: −0.92
- times more potent than DWJW0003 as inhibitor of serotonin transporter ([2]; with reference to Table 1): about 3 times

SMILES: CNCC1CC1(Oc1cccc2ccccc12)c1cccs1 (racemic) [DWJW0003, (Z)-N-Methyl-[2-(naphthalen-1-yloxy)-2-(thiophen-2-yl)cyclopropyl]methanamine Hydrochloride]
- Slope, Norepinephrine (NE) transporter ([3]; Table 1, binding curve slope): −0.84
- times more potent than DWJW0002 as inhibitor of norepinephrine transporter ([3]; with reference to Table 1): about 9 times
- Slope, Dopamine (DA) transporter [1]: −1
- times more potent than DWJW0002 as inhibitor of dopamine transporter ([1]; with reference to Table 1): about 2 times
- Slope, Serotonin (5-HT) transporter [2]: −1.19

SMILES: Fc1ccc(C(OCCN2CCN(CCCc3ccccc3)CC2)c2ccc(F)cc2)cc1 [GBR12909, reference compound]
- Slope, Dopamine (DA) transporter [1]: −1.25
- times more potent than DWJW0002 as inhibitor of dopamine transporter ([1]; with reference to Table 1): 16 times
- times more potent than DWJW0003 as inhibitor of dopamine transporter ([1]; with reference to Table 1): 8 times

SMILES: CN(C)CCCN1c2ccccc2CCc2ccccc21 [Imipramine, reference compound]
- Slope, Serotonin (5-HT) transporter [2]: −1.06

SMILES: C#Cc1ccc([C@@H]2CN3CCC[C@@H]3c3ccccc32)cc1 [JNJ-7925476]
- Ki [4]: 5.2 ± 1 nM
- Ki [5]: 16.6 ± 7 nM
- Ki [6]: 0.9 ± 0.1 nM
